Experimental data from patent US11285144B2, “Use of CDK8 inhibitors to treat diseases of inflammation and autoimmunity” (THE BROAD INSTITUTE, INC., priority 2016, dated 2022).
“Also recorded” adds a separate entry of the source.

How the values were obtained:
tubulin = test: Tubulin polymerization, cell-free assay; assay type: biochemical
Text: FIG. 4—DOS-derived IL-10 hit BRD0326 perturbs microtubule dynamics. (a) Chemical structure of BRD0326. […] (c) BRD0326's IL-10 enhancing activity depends on its stereochemistry (EC50's=mean of 2 independent experiments). (d) Transcriptional responses elicited by BRD0326 correlate with those induced by small molecule modulators of microtubule dynamics.

[1] = test system: Zymosan A-stimulated BMDCs; test: Cytokine production by Zymosan A-stimulated BMDCs; assay type: cell-based, mouse; conditions: zymosan A-stimulated BMDCs
Text: Towards the goal of identifying new mechanisms of IL-10 regulation, 59,346 small molecules were screened for the ability to enhance IL-10 production by activated bone marrow-derived dendritic cells (BMDCs) using a high-throughput assay developed previously (Sundberg et al., PNAS 111:12468-12473, 2014). Compounds were derived from both commercial collections and structurally and skeletally diverse libraries prepared by diversity-oriented synthesis (DOS). More than 60 hit compounds were identified that reproducibly enhance IL-10 production in a concentration-dependent manner (Table 1). Three distinct chemotypes were prioritized for follow-up based on potency and an initial analysis of structure-activity relationship (SAR) with respect to core scaffold, stereochemistry and side chains (FIG. 2a).
(§1) The pyridinyl tetrahydroquinoline BRD6989 (10) emerged as a prioritized hit in the screen (FIG. 2a and Table 2). […] Thus, BRD6989 enhances IL-10 production in activated human and murine macrophages and dendritic cells by a mechanism that appears most pronounced following stimulation of toll-like receptors-7 (TLR7) and TLR8 by R848.

R848-stimulated BMDCs [2] = test: Cytokine production by R848-stimulated BMDCs; assay type: cell-based, mouse
Text: as §1
(§2) Pre-treatment with these CDK8/19 inhibitors recapitulated the IL-10 potentiating activity of BRD6989 in both BMDCs (FIG. 9b) along with human DCs derived from two independent donors in the context of R848 stimulation (FIGS. 9c and 10a).

[3] = test system: human, monocyte-derived DCs; test: IL-10 production in human monocyte-derived DCs stimulated with R848; assay type: cell-based
Text: as §1, §2

R848-stimulated BMDCs [4] = test: IL-10 mRNA levels in BMDCs following R848 stimulation; assay type: cell-based, mouse; conditions: pre-treatment, then R848 stimulation
Method: FIG. 5—Cellular activities of the IL-10 hit BRD6989. […] (d) Effect of BRD6989 on IL-10 production in human DCs stimulated with R848 (each point corresponds to mean±S.D.; n=3 biological replicates from 1 independent experiment using cells derived from 1 donor). (e) Chemical structure of the pan-SIK inhibitor HG-9-91-01. (f) Effect of pre-treating BMDCs with HG-9-91-01 (0.5 μM) or BRD6989 (5 μM) on IL-10 mRNA levels following stimulation with R848 (each point corresponds to mean±S.D.; n=4 biological replicates from 1 independent experiment; *, P<0.05; ***, P<0.001 using unpaired, two-tailed Student's t test). Data from all panels is representative of at least 2 independent experiments.
Based on its ability to selectively potentiate IL-10 production by a mechanism that appears temporally distinct from CREB activation, BRD6989 was prioritized for MOA studies.

[5] = test system: BMDCs stimulated with R848 or Zymosan A; test: Co-treatment of BMDCs with T-5224, cytokine production; assay type: cell-based, mouse; conditions: T-5224 100 μM
Method: FIG. 13—Modulation of c-Jun/AP-1 links CDK8 inhibition to enhanced IL-10 production. (a) CDK8 responsive signaling pathways in activated BMDMs as identified by the highly parallel reporter gene assay TF-Seq. Reporter data is integrated for time points between 15 min 4 hr from 1 independent experiment. Dashed lines correspond to FDR<0.05 as corrected by Benjamin-Hochberg testing. (b) Relative to all highly expressed genes, JunB binding sites are enriched among the subset of genes induced by CDK8 inhibition (see Online Methods). […] Data is representative of 2 independent experiments. […] Data is representative of 2 independent experiments. […] CpG, synthetic CpG-containing oligonucleotide; FLA, flagellin A; LPS, lipopolysaccharide; MDP, muramyldipeptide; Pam3cys, synthetic triacylated lipoprotein; poly(I:C), polyinosinic-polycytidylic acid; SeV, Sendai virus; TDB, trehalose-6,6-dibehenate.
FIG. 15—CDK8 inhibition enhances AP-1 activity during innate immune activation. (a) Time course of AP-1 reporter activity in BMDMs pre-treated with dCA (0.1 μM) or BRD6989 (5 μM) prior to stimulation with the indicated viruses or microbial ligands for the indicated time points (each point corresponds to TF-Seq reporter data derived from 1 independent experiment). […] Data is from 1 independent experiment. (c) Chemical structure of the c-Fos/AP-1 inhibitor T-5224. […] Data in panels (c,d) are representative of 2 independent experiments. CpG, synthetic CpG-containing oligonucleotide; FLA, flagellin; LPS, lipopolysaccharide; MDP, muramyldipeptide; Pam3cys, synthetic triacylated lipoprotein; Poly(I:C), polyinosinic-polycytidylic acid; SeV, Sendai virus; TDB, trehalose-6,6-dibehenate.
Given the presence of an AP1 consensus motif in IL-10 and evidence that potentiation of MAP kinase signaling can increase IL-10 production (Saraiva et al., Nat Rev Immunol 10:170-81, 2010; Wang et al., Nat Commun 5:3479, 2014; Na et al., Science Signaling 8:2015), it was hypothesized that increased AP-1 activity resulting from reduced c-Jun Ser243 phosphorylation may mediate activation of IL-10 following CDK8 inhibition.

## CS(=O)(=O)N1[C@H](C#N)[C@H](c2ccc(C#Cc3cccc(F)c3)cc2)[C@H]1CO [BRD0326]
tubulin
  tubulin / microtubule polymerization: suppressed microtubule polymerization; also recorded: suppresses tubulin polymerization
[1]
  IL-10 production: potentiates IL-10 production by Zymosan A-stimulated BMDCs to a similar degree as PGE2

## Cn1ncc2cc(-c3cnc(N)c(Cl)c3N3CCC4(CCNC4=O)CC3)ccc21 [CCT251921]
R848-stimulated BMDCs [2]
  IL-10 production: recapitulate the IL-10 enhancing activity of BRD6989
[3]
  IL-10 production: recapitulate IL-10 potentiation by BRD6989

## COc1ccc(N(C(=O)Nc2c(C)cccc2C)c2cc(Nc3ccc(N4CCN(C)CC4)cc3)ncn2)c(OC)c1 [HG-9-91-01, reference compound]
R848-stimulated BMDCs [4]
  IL-10 mRNA levels: elevate Il-10 mRNA immediately following microbial stimulation without greatly extending the duration of this response

## O=C(O)CCc1cc(C(=O)c2ccc(OC3CCCC3)cc2O)ccc1OCc1ccc2c(=O)[nH]oc2c1 [T-5224]
[5]; R848
  production of IL-6 or TNFα on co-incubation with dCA: does not affect production of IL-6 or TNFα
[5]; R848 or Zymosan A
  IL-10 production on co-treatment with dCA: suppressed IL-10 production; also recorded: suppresses the IL-10 enhancing activity of dCA
[5]; Zymosan A
  IL-10 increase induced by HG-9-91-01 on co-treatment: did not affect; also recorded: does not affect up-regulation of IL-10 or suppression of IL-6

## CN(C)C/C=C/C(=O)Nc1ccc(C(=O)Nc2cccc(Nc3ncc(Cl)c(-c4c[nH]c5ccccc45)n3)c2)cc1 [THZ-1]
R848-stimulated BMDCs [2]
  IL-10 production: not enhanced
